Assay [1] has as its system AB5075. As to the kind of experiment: Broth microdilution MIC of compound alone (standalone toxicity). The class given is cell-based, Acinetobacter baumannii. How it is done:
(§1) Bacterial Strains and Antimicrobial Agents. Acinetobacter baumannii clinical isolate 5075 was obtained from Dr. Colin Manoil at the University of Washington. Colonies were grown on lysogeny broth (LB) agar. Cation-adjusted Mueller-Hinton Broth (CAMHB) (catalog number 212322) were purchased from BD Diagnostics. LB broth was purchased from Fisher Scientific (catalog number BP9722-2). […] Colistin sulfate salt (catalog number C4461) was purchased from Sigma Aldrich. All assays were completed in duplicate and repeated at least two separate times. All compounds were dissolved as their HCl salts in molecular biology grade DMSO as 10 or 100 mM stock solutions and stored at −20° C. Colistin was dissolved in sterile water while clarithromycin was dissolved in molecular biology grade DMSO.
Broth microdilution method for MIC determination. Day cultures (6 h) of each bacterial strain in cation adjusted Mueller Hinton II broth (CAMHB, Fisher Scientific U.S.) were subcultured to 5×10^5 CFU/mL in CAMHB. Aliquots (1 mL) were placed in culture tubes and compound was added from 10 mM stock samples in DMSO, such that compound concentration equaled highest concentration tested (200 μM). Samples were then aliquoted (200 μL) into the first wells of a 96-well plate, with all remaining wells being filled with 100 μL of initial bacterial subculture. Row one wells were mixed five times, before 100 μL was transferred to row two. Row two was then mixed five times, and 100 μL was transferred to row three. This process was repeated until the final row had been mixed; this served to serially dilute the compound. Plates were then covered with GLAD Press n'Seal and incubated under stationary conditions at 37° C. for 16 h. MIC values were then recorded as the lowest concentration at which no bacterial growth was observed.

For assay [2], the system named is AB5075. In words: Broth microdilution clarithromycin (CLR) potentiation and dose-response of adjuvant. It counts as cell-based, Acinetobacter baumannii. The procedure:
as §1
Broth microdilution method for antibiotic potentiation. Day cultures (6 h) of bacteria in CAMHB were subcultured to 5×10^5 CFU/mL in CAMHB. Aliquots (4 mL) were placed in culture tubes and dosed with compound from 10 mM stock samples to give the desired concentration of the compound to be tested against the particular bacterial strain; this insured non-toxic DMSO concentrations ≤0.3% in each well. 1 mL of the resulting solution was placed in a separate culture and dosed with antibiotic at the highest concentration to be tested. Bacteria treated with antibiotic alone served as the control. Row one of a 96-well plate was filled with 200 μL of the antibiotic/2-AI solution, and rows 2-12 were filled with 100 μL each of the remaining 4 mL of bacterial subculture containing adjuvant at the desired concentration, except for the control lane which contained only bacterial subculture. Row one was then mixed five times, and 100 μL was transferred to row two, which was then mixed five times before being transferred to row three. This process was repeated until all rows had been mixed, except for row twelve which would have only 2-AI to serve as a control to monitor potential toxicity. The 96-well plate was then covered in Glad Press n'Seal and incubated under stationary conditions at 37° C. for 16 h. MIC values were determined as the lowest concentration at which no bacterial growth was observed, and fold reductions were determined by comparison to antibiotic control lane.
Dose-response of Adjuvant Assay. The procedure for ‘broth microdilution method for antibiotic potentiation’ was followed using 4 mL aliquots of adjuvant at various concentrations: 0, 5, 7.5, 10, 15, 20, 25, and 30 μM.
(Dilution methods test growth across graded concentrations, often in twofold steps.)

Like-named read-outs stand apart in the source and are kept apart here. Some results are limits rather than exact numbers.

This note sets out measurements from patent US12559461B2, “Antibiotic adjuvant compounds” (UNIVERSITY OF NOTRE DAME DU LAC, priority 2020, dated 2026).

The term MIC denotes the lowest concentration found to suppress growth.

`Cl.Nc1nc(-c2ccc(NC(=O)c3cccc(Cl)c3Cl)cc2)c[nH]1` [Compound 4q, N-(4-(2-amino-1H-imidazol-4-yl)phenyl)-2,3-dichlorobenzamide hydrochloride]: the MIC with AB5075 [1] (Acinetobacter baumannii) is over 200 µM. In the assay on AB5075 [2] (compound tested at 30 μM), the “CLR MIC” value was 8 µg/mL and the “Fold Reduction of CLR MIC” value is recorded as “four-fold”.
For the compound `Cc1cc(C)cc(C(=O)Nc2ccc(-c3c[nH]c(N)n3)cc2)c1.Cl` [Compound 4m, N-(4-(2-amino-1H-imidazol-4-yl)phenyl)-3,5-dimethylbenzamide hydrochloride], the MIC in the assay on AB5075 [1] (Acinetobacter baumannii) was over 200 µM. In the assay with AB5075 [2] (compound tested at 30 μM), the “CLR MIC” value worked out at 2 µg/mL.
As to `Cl.Nc1nc(-c2ccc(NC(=O)c3ccc(Br)cc3F)cc2)c[nH]1` [Compound 4u], the MIC in the assay with AB5075 [1] is reported as over 200 µM. The figures for the “CLR MIC” value in the assay on AB5075 [2] (compound tested at 10 μM), in the assay with AB5075 [2] (compound tested at 20 μM) and in the assay on AB5075 [2] (compound tested at 30 μM) were 32 µg/mL, 16 µg/mL and 2 µg/mL, respectively.
For `Cl.Nc1nc(-c2ccc(NC(=O)c3ccc(F)cc3)cc2)c[nH]1` [Compound 4j, N-(4-(2-amino-1H-imidazol-4-yl)phenyl)-4-fluorobenzamide hydrochloride], in the assay on AB5075 [1] (Acinetobacter baumannii), the MIC was over 200 µM. The “CLR MIC” value in the assay on AB5075 [2] (compound tested at 30 μM) is 8 µg/mL.
As for `Cl.Nc1nc(-c2ccc(NC(=O)c3cc(Cl)cc(Cl)c3)cc2F)c[nH]1` [Compound 10d, N-(4-(2-amino-1H-imidazol-4-yl)-3-fluorophenyl)-3,5-dichlorobenzamide hydrochloride], the minimal inhibitory concentration (MIC) with AB5075 [1] (Acinetobacter baumannii) was over 200 µM. For the same compound, the “CLR MIC” value in the assay with AB5075 [2] (compound tested at 5 μM) was found to be 8 µg/mL; in the assay with AB5075 [2] (compound tested at 7.5 μM), 4 µg/mL; in the assay on AB5075 [2] (compound tested at 10 μM), 0.5 µg/mL; in the assay on AB5075 [2] (compound tested at 20 μM) it was 0.25 µg/mL; in the assay on AB5075 [2] (compound tested at 30 μM, hydrochloride), 0.25 µg/mL. Also, the figures for the “Fold Reduction of CLR MIC” value in the assay with AB5075 [2] (compound tested at 5 μM), in the assay on AB5075 [2] (compound tested at 10 μM) and in the assay on AB5075 [2] (compound tested at 20 μM) were 4 fold, 64 fold and 128 fold, respectively.
Regarding `Cl.Nc1nc(-c2ccc(NC(=O)c3cc(Cl)c(Br)c(Cl)c3)cc2)c[nH]1` [Compound 4y, N-(4-(2-amino-1H-imidazol-4-yl)phenyl)-4-bromo-3,5-dichlorobenzamide hydrochloride], the MIC in the assay on AB5075 [1] (Acinetobacter baumannii) is 200 µM. Also, the “CLR MIC” value was determined as 8 µg/mL in the assay on AB5075 [2] (compound tested at 7.5 μM), 0.25 µg/mL with AB5075 [2] (compound tested at 10 μM) and 0.25 µg/mL with AB5075 [2] (compound tested at 20 μM). The “Fold Reduction of CLR MIC” value in the assay with AB5075 [2] (compound tested at 10 μM) is recorded as 128 fold.
`Cl.Nc1nc(-c2ccc(NC(=O)c3cccc(Br)c3)cc2)c[nH]1` [Compound 4c]: in the assay on AB5075 [1], the MIC is listed as over 200 µM. The “CLR MIC” value in the assay with AB5075 [2] (compound tested at 30 μM) came to 32 µg/mL.
As for `Cc1cc(NC(=O)c2cc(Cl)cc(Cl)c2)ccc1-c1c[nH]c(N)n1.Cl` [Compound 6b, N-(4-(2-amino-1H-imidazol-4-yl)-3-methylphenyl)-3,5-dichlorobenzamide hydrochloride], in the assay on AB5075 [1] (Acinetobacter baumannii), the MIC was over 200 µM. The “CLR MIC” value with AB5075 [2] (compound tested at 10 μM) came out at 8 µg/mL; in the assay with AB5075 [2] (compound tested at 20 μM), 0.5 µg/mL; in the assay on AB5075 [2] (compound tested at 30 μM), 0.5 µg/mL. In addition, the “Fold Reduction of CLR MIC” value in the assay with AB5075 [2] (compound tested at 20 μM) and with AB5075 [2] (compound tested at 30 μM) was 64 fold throughout.
For the compound `Cl.Nc1nc(-c2ccc(NC(=O)c3cc(Cl)cc(Cl)c3)c(Cl)c2)c[nH]1` [Compound 10b, N-(4-(2-amino-1H-imidazol-4-yl)-2-chlorophenyl)-3,5-dichlorobenzamide hydrochloride], the MIC in the assay with AB5075 [1] (Acinetobacter baumannii) was over 200 µM. In the assay on AB5075 [2] (compound tested at 30 μM), the “CLR MIC” value was found to be 16 µg/mL.
`Cl.Nc1nc(-c2ccc(NC(=O)c3cccc(F)c3)cc2)c[nH]1` [Compound 4e]: in the assay on AB5075 [1], the MIC is reported as over 200 µM. The “CLR MIC” value in the assay on AB5075 [2] (compound tested at 30 μM) turned out to be 16 µg/mL.
With `COc1cc(-c2c[nH]c(N)n2)ccc1NC(=O)c1cc(Cl)cc(Cl)c1.Cl` [Compound 6a, N-(4-(2-amino-1H-imidazol-4-yl)-2-methoxyphenyl)-3,5-dichlorobenzamide hydrochloride], the MIC in the assay on AB5075 [1] (Acinetobacter baumannii) stood at 100 µM. Besides, the “CLR MIC” value came to 16 µg/mL in the assay with AB5075 [2] (compound tested at 10 μM), 4 µg/mL with AB5075 [2] (compound tested at 20 μM) and 0.5 µg/mL in the assay on AB5075 [2] (compound tested at 30 μM). Moreover, the “Fold Reduction of CLR MIC” value in the assay with AB5075 [2] (compound tested at 20 μM) is recorded as 8 fold; in the assay with AB5075 [2] (compound tested at 30 μM), 64 fold.
With `Cl.Nc1nc(-c2ccc(NC(=O)Nc3ccc(Cl)c(Cl)c3)cc2)c[nH]1` [Compound 20c, 1-(4-(2-amino-1H-imidazol-4-yl)phenyl)-3-(3,4-dichlorophenyl)urea hydrochloride], the MIC with AB5075 [1] (Acinetobacter baumannii) was 100 µM. For the same compound, the “CLR MIC” value with AB5075 [2] (compound dosed at higher concentrations (≥20 μM)) is at most 0.0625 µg/mL; with AB5075 [2] (compound tested at 5 μM), 8 µg/mL; in the assay on AB5075 [2] (compound tested at 7.5 μM), 2 µg/mL; in the assay with AB5075 [2] (compound tested at 10 μM) it was 0.25 µg/mL; in the assay on AB5075 [2] (compound tested at 20 μM), at most 0.0625 µg/mL. For the same compound, the “Fold Reduction of CLR MIC” value is recorded as 4 fold with AB5075 [2] (compound tested at 5 μM), 16 fold in the assay on AB5075 [2] (compound tested at 7.5 μM), 128 fold with AB5075 [2] (compound tested at 10 μM) and at least 512 fold in the assay with AB5075 [2] (compound tested at 20 μM).
